# According to patent EP4786487A1, “PEPTIDE” (Peptidream Inc, priority 2023, dated 2025):
# Like-named read-outs stand apart in the source and are kept apart here. Starred links: 1 amine or outer side, 2 acyl side, 3 side chain; linkers in the order of their positions; H or OH if unused. Positions of bridges follow the written chain, without caps; N, C: chain ends. Non-standard residues stand in square brackets, D forms with d. Residues, ends and D or L forms follow the SMILES beside them. No end group written: not given here. *: point of attachment. Trp(6-OH,1-(4-HO2C-Ph)) = N[C@@H](Cc1cn(-c2ccc(C(=O)O)cc2)c2cc(O)ccc12)C(=O)O; Phe(3-OCH2COOH) = N[C@@H](Cc1cccc(OCC(=O)O)c1)C(=O)O; N(CH2CH2CO)Gly = O=C(CN(CCC(=O)[*:3])[*:1])[*:2]; NMePhe(4-CH2NH2) = CN[C@@H](Cc1ccc(CN)cc1)C(=O)O; Piperidine(4-CH2CH2CONH2) = NC(=O)CCC1CCN(*)CC1; Phe(4-COOH) = N[C@@H](Cc1ccc(C(=O)O)cc1)C(=O)O; Gly(N(CH2)3COOH) = O=C(O)CCCNCC(=O)O; X1 = CCCCCCC[C@H](N[*:1])C(=O)[*:2]; NMeAad = CN[C@@H](CCCC(=O)O)C(=O)O; NMeF = CN[C@@H](Cc1ccccc1)C(=O)O; NMeDab = CN[C@@H](CCN)C(=O)O; NMeDap = CN[C@@H](CN)C(=O)O; NMeA = CN[C@@H](C)C(=O)O; Sar = CNCC(=O)O
# Assays:
# Type in all cases: cell-based
# GDF-11 = target: T1, GDF-11 (Homo sapiens, UniProt O95390); experiment: Reporter gene assay for myostatin signaling in HepG2 cell line, Evaluation Procedure (1), GDF-11 inhibition
# T1 construct: purchased R&D systems 1958-GD-G8/CF
# T1 sequence (O95390 299-407): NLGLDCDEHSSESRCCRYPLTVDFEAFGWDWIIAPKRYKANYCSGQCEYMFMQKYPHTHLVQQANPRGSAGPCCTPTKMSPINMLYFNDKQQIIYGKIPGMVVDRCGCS
# Description: (§1) In this Example, the in vitro myostatin inhibitory effects of the peptides synthesized in Examples 1 and 2 were evaluated using a reporter gene assay for myostatin signaling in HepG2 cell line.
# (§2) HepG2 cell line (HB-8065, ATCC) cultured in EMEM (055-08975, WAKO Industries) containing 10% FBS (10270106, Gibco) and 50 µg/mL gentamicin (11980-14, Nacalai Tesque) was seeded in 96-well plates (167008, Thermo) at 2.0 × 10^4 cells/well and incubated in a CO2 incubator (37°C, 5% CO2) for 24 hours. The pGL3(CAGA)12-luc plasmid, namely a pGL3 vector (E1751, Promega) having a luciferase gene inserted downstream of a promoter sequence with 12 CAGA repeats attached, was added to the wells along with a transfection reagent (X-treamGENE9 DNA Transfection Reagent, 6365809001, Roche) at a concentration of 0.04 µg/well. The cell line was cultured in a CO2 incubator (37°C, 5% CO2) for 24 hours for transfection. The medium was discarded and replaced with EMEM containing 50 µL/well of 0.1% bovine serum albumin (A7030, Sigma) and 50 µg/mL gentamicin, and incubated in a CO2 incubator (37°C, 5% CO2) for 2 hours.
# (§3) Myostatin (788-G8/C, R&D systems) or GDF-11 (1958-GD-G8/CF, R&D systems) was added so that the final concentrations were those listed in Table 5.
# (§4) A 4-fold dilution series of various peptides synthesized in Examples 1 and 2 was added to achieve 0.006-100 nmol/L (myostatin inhibition) and 0.12-2000 nmol/L (GDF-11 inhibition). At this time, blank wells, in which neither myostatin, GDF-11, nor each peptide was added, were also prepared and incubated in a CO2 incubator (37°C, 5% CO2) for 20 to 24 hours.
# (§5) The medium containing the cells was removed, and a mixture containing PBS (14190144, Thermo) and a chromogenic substrate One-Glo Luciferase Assay System (E6120, Promega) at a ratio of 1:1 was added to each well at 100 µL/well. This was stirred with a plate shaker for 5 min and transferred to a 384-well plate (3570, Corning) at a volume of 20 µL/well.
# (§6) The plate was centrifuged at 1,000 × g for 1 min and the luminescence signal (700 nm luminescence) was measured using a plate reader (Envision 2104, PerkinElmer). Based on the measured values, IC50 values of the peptides were calculated using software (Prism 9, GraphPad). […]
# (§7) In this Example, the in vitro myostatin inhibitory effects of the peptides synthesized in Examples 10 and 11 were evaluated according to the Evaluation Procedure (1) in Example 3.
# Myostatin [1] = target: T2, Myostatin (Homo sapiens, UniProt O14793); experiment: Reporter gene assay for myostatin signaling in HepG2 cell line, Evaluation Procedure (1), myostatin inhibition
# T2 construct: active myostatin (also called mature myostatin) is a homodimer consisting of two C-terminal growth factor domains; purchased R&D systems 788-G8/CF
# T2 sequence (O14793 267-375): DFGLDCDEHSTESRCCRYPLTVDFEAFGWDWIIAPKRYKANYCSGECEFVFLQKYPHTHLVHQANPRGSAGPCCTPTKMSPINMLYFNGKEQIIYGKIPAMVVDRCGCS
# Description: as §1, §2, §3, §4, §5, §6, §7
# Myostatin [2] = experiment: as above
# Description: as §1, §2, §3, §4, §5, §6, §7
# [3] = Method D: GDF-11 1.5 ng/mL, read-out: IC50 (Luciferase) GDF-11 HepG2
# [4] = Method D: Myostatin 1.5 ng/mL, read-out: IC50 (Luciferase) Myostatin HepG2
# [5] = HepG2, luciferase reporter, Evaluation Procedure (1), Method D, read-out: IC50 (Luciferase) GDP-11 HepG2
# [6] = HepG2, luciferase reporter, Evaluation Procedure (1), Method D
Compound,IC50 (GDF-11; [5]),IC50 (Myostatin [1]; [6]),further results
CCCCCCC[C@@H]1NC(=O)[C@H](Cc2ccccc2)N(C)C(=O)[C@H](CCCNC(=N)N)NC(=O)[C@H](Cc2ccc(C(=O)O)cc2)NC(=O)[C@H](Cc2cccc(OCC(=O)O)c2)NC(=O)[C@H](C)N(C)C(=O)[C@H]([C@@H](C)CC)NC(=O)[C@H](Cc2ccccc2)N(C)C(=O)[C@H](Cc2ccc(O)cc2)NC(=O)[C@H](Cc2c[nH]c3ccccc23)NC(=O)[C@H](C)NC(=O)[C@@H]2CC(=O)NCC[C@@H](C(=O)N(C)[C@@H](Cc3ccccc3)C(=O)N[C@@H](C(=O)O)CSCC(=O)N2)N(C)C1=O [Myostatin_99_v367] ({CH2CO}-DAWY[NMeF]I[NMeA][Phe(3-OCH2COOH)][Phe(4-COOH)]R[NMeF][X1][NMeDab][NMeF][dC]-OH; lactam 1-13; thioether N-15),,,IC50 (GDF-11; [3]): 117 nM; IC50 (Myostatin [1]; [4]): 0.15 nM
CCCCCCC[C@@H]1NC(=O)[C@@H]2Cc3ccc(cc3)CNC(=O)C[C@H](NC(=O)CSC[C@H](C(=O)O)NC(=O)[C@H](Cc3ccccc3)N(C)C(=O)[C@H](C)N(C)C1=O)C(=O)N[C@@H](C)C(=O)N[C@@H](Cc1c[nH]c3ccccc13)C(=O)N[C@@H](Cc1ccc(O)cc1)C(=O)N(C)[C@@H](Cc1ccccc1)C(=O)N[C@@H]([C@@H](C)CC)C(=O)N(C)[C@@H](C)C(=O)N[C@@H](Cc1cccc(OCC(=O)O)c1)C(=O)N[C@@H](Cc1ccc(C(=O)O)cc1)C(=O)N[C@@H](CCCNC(=N)N)C(=O)N2C [Myostatin_99_v386] ({CH2CO}-DAWY[NMeF]I[NMeA][Phe(3-OCH2COOH)][Phe(4-COOH)]R[NMePhe(4-CH2NH2)][X1][NMeA][NMeF][dC]-OH; lactam 1-11 (inferred); thioether N-15 (inferred); N-terminus and C-terminus assumed),,,"Selectivity (Myostatin [2]; Method D, GDF-11 IC50 versus Myostatin IC50): 294.1"
"CCCCCCC[C@@H]1NC(=O)[C@@H]2Cc3ccc(cc3)CNC(=O)CC[C@H](NC(=O)CSC[C@H](C(=O)O)NC(=O)[C@H](Cc3ccccc3)N(C)C(=O)[C@H](C)N(C)C1=O)C(=O)N[C@@H](C)C(=O)N[C@@H](Cc1cn(-c3ccc(C(=O)O)cc3)c3cc(O)ccc13)C(=O)N[C@@H](Cc1ccc(O)cc1)C(=O)N(C)[C@@H](Cc1ccccc1)C(=O)N[C@@H]([C@@H](C)CC)C(=O)N1CCC[C@@H]1C(=O)N[C@@H](Cc1cccc(OCC(=O)O)c1)C(=O)N[C@@H](Cc1ccc(C(=O)O)cc1)C(=O)N[C@@H](CCCNC(=N)N)C(=O)N2C [Myostatin_99_v424] ({CH2CO}-EA[Trp(6-OH,1-(4-HO2C-Ph))]Y[NMeF]I[dP][Phe(3-OCH2COOH)][Phe(4-COOH)]R[NMePhe(4-CH2NH2)][X1][NMeA][NMeF][dC]-OH; lactam 1-11; thioether N-15)",,,IC50 (GDF-11; [3]): 15.2 nM; IC50 (Myostatin [1]; [4]): 0.04 nM
"CCCCCCC[C@@H]1NC(=O)[C@H](Cc2ccccc2)N(C)C(=O)[C@H](CCCNC(=N)N)NC(=O)[C@H](Cc2ccc(C(=O)O)cc2)NC(=O)[C@H](Cc2cccc(OCC(=O)O)c2)NC(=O)[C@H]2CCCN2C(=O)[C@H]([C@@H](C)CC)NC(=O)[C@H](Cc2ccccc2)N(C)C(=O)[C@H](Cc2ccc(O)cc2)NC(=O)[C@H](Cc2cn(-c3ccc(C(=O)O)cc3)c3cc(O)ccc23)NC(=O)[C@H](C)NC(=O)[C@H](C)NC(=O)[C@H](C)N(C)C(=O)[C@@H](C)NC(=O)[C@H](Cc2ccccc2)N(C)C(=O)[C@H](C)N(C)C1=O [Myostatin_99_v483] (cyclo(AA[Trp(6-OH,1-(4-HO2C-Ph))]Y[NMeF]I[dP][Phe(3-OCH2COOH)][Phe(4-COOH)]R[NMeF][X1][NMeA][NMeF][dA][NMeA]))",59.9 nM,0.14 nM,
"CCCCCCC[C@@H]1NC(=O)[C@H](Cc2ccccc2)N(C)C(=O)[C@H](CCCNC(=N)N)NC(=O)[C@H](Cc2ccc(C(=O)O)cc2)NC(=O)[C@H](Cc2cccc(OCC(=O)O)c2)NC(=O)[C@H]2CCCN2C(=O)[C@H]([C@@H](C)CC)NC(=O)[C@H](Cc2ccccc2)N(C)C(=O)[C@H](Cc2ccc(O)cc2)NC(=O)[C@H](Cc2cn(-c3ccc(C(=O)O)cc3)c3cc(O)ccc23)NC(=O)[C@H](C)NC(=O)CN(CCCC(=O)O)C(=O)CSC[C@H](C(=O)N2CCC(CCC(N)=O)CC2)NC(=O)[C@H](Cc2ccccc2)N(C)C(=O)[C@H](C)N(C)C1=O [Myostatin_99_v488] ({CH2CO}-[Gly(N(CH2)3COOH)]A[Trp(6-OH,1-(4-HO2C-Ph))]Y[NMeF]I[dP][Phe(3-OCH2COOH)][Phe(4-COOH)]R[NMeF][X1][NMeA][NMeF][dC]-{Piperidine(4-CH2CH2CONH2)}; thioether N-15)",53.2 nM,0.18 nM,
"CCCCCCC[C@@H]1NC(=O)[C@@H]2Cc3ccc(cc3)CNC(=O)CCC[C@@H](C(=O)N[C@@H](C)C(=O)N[C@@H](Cc3cn(-c4ccc(C(=O)O)cc4)c4cc(O)ccc34)C(=O)N[C@@H](Cc3ccc(O)cc3)C(=O)N(C)[C@@H](Cc3ccccc3)C(=O)N[C@@H]([C@@H](C)CC)C(=O)N3CCC[C@@H]3C(=O)N[C@@H](Cc3cccc(OCC(=O)O)c3)C(=O)N[C@@H](Cc3ccc(C(=O)O)cc3)C(=O)N[C@@H](CCCNC(=N)N)C(=O)N2C)N(C)C(=O)[C@H](C)N(C)C(=O)[C@@H](C)NC(=O)[C@H](Cc2ccccc2)N(C)C(=O)[C@H](C)N(C)C1=O [Myostatin_99_v490] (cyclo(A[Trp(6-OH,1-(4-HO2C-Ph))]Y[NMeF]I[dP][Phe(3-OCH2COOH)][Phe(4-COOH)]R[NMePhe(4-CH2NH2)][X1][NMeA][NMeF][dA][NMeA][NMeAad]); lactam 10-16)",112 nM,0.7 nM,
A-R-W-Y-MeF-I-MeG-Y-Y-R-MeF-L-MeA-MeF-C (ARWY[NMeF]I[Sar]YYR[NMeF]L[NMeA][NMeF]C) [SEQ ID NO: 1],,,"inhibitory activity against myostatin (Myostatin [2]; HepG2 reporter assays, statement in words): confirmed to have myostatin inhibitory activity"

# More lines, main results first:
IC50 (GDF-11; [5]),IC50 (Myostatin [1]; [6]),Compound,further results
25.5 nM,0.04 nM,"CCCCCCC[C@@H]1NC(=O)[C@H](Cc2ccccc2)N(C)C(=O)[C@H](CCCNC(=N)N)NC(=O)[C@H](Cc2ccc(C(=O)O)cc2)NC(=O)[C@H](Cc2cccc(OCC(=O)O)c2)NC(=O)[C@H]2CCCN2C(=O)[C@H]([C@@H](C)CC)NC(=O)[C@H](Cc2ccccc2)N(C)C(=O)[C@H](Cc2ccc(O)cc2)NC(=O)[C@H](Cc2cn(-c3ccc(C(=O)O)cc3)c3cc(O)ccc23)NC(=O)[C@H](C)NC(=O)CN2CCC(=O)NC[C@@H](C(=O)N(C)[C@@H](Cc3ccccc3)C(=O)N[C@@H](C(=O)N3CCC(CCC(N)=O)CC3)CSCC2=O)N(C)C1=O [Myostatin_99_v478] ({CH2CO}-[N(CH2CH2CO)Gly]A[Trp(6-OH,1-(4-HO2C-Ph))]Y[NMeF]I[dP][Phe(3-OCH2COOH)][Phe(4-COOH)]R[NMeF][X1][NMeDap][NMeF][dC]-{Piperidine(4-CH2CH2CONH2)}; lactam 1-13; thioether N-15)",
90.2 nM,0.11 nM,"CCCCCCC[C@@H]1NC(=O)[C@H](Cc2ccccc2)N(C)C(=O)[C@H](CCCNC(=N)N)NC(=O)[C@H](Cc2ccc(C(=O)O)cc2)NC(=O)[C@H](Cc2cccc(OCC(=O)O)c2)NC(=O)[C@H]2CCCN2C(=O)[C@H]([C@@H](C)CC)NC(=O)[C@H](Cc2ccccc2)N(C)C(=O)[C@H](Cc2ccc(O)cc2)NC(=O)[C@H](Cc2cn(-c3ccc(C(=O)O)cc3)c3cc(O)ccc23)NC(=O)[C@H](C)NC(=O)CN(CCCC(=O)O)C(=O)[C@H](C)N(C)C(=O)[C@@H](C)NC(=O)[C@H](Cc2ccccc2)N(C)C(=O)[C@H](C)N(C)C1=O [Myostatin_99_v482] (cyclo(A[Trp(6-OH,1-(4-HO2C-Ph))]Y[NMeF]I[dP][Phe(3-OCH2COOH)][Phe(4-COOH)]R[NMeF][X1][NMeA][NMeF][dA][NMeA][Gly(N(CH2)3COOH)]))",
